# How the values were obtained:
# [1] = system: TAA-induced model hepatic fibrosis in mice; test: Treatment of TAA-induced model hepatic fibrosis in mice by oral (intragastric) administration; hydroxyproline test and alanine aminotransferase test; type: in vivo, ICR mice; settings: hepatic tissue, 20mg/kg intragastrically in corn oil, twice a week, 4 weeks, TAA 200mg/kg, mean value ± standard deviation; for hydroxyproline: TAA model group 356±43; for alanine aminotransferase: TAA model group 372±24
# Excerpt: (§1) The following example is to be regarded as a case to illustrate specific details of this invention. It should not be viewed as to limit the application scope of this invention. Application of Indole-3-carbinol, Diindolylmethane and Derivatives thereof Disclosed in This Invention in the Treatment of Modeled Hepatic Fibrosis: • 1. Injecting the phosphate buffer solution of thioacetamide (TTA) into the abdominal cavity of ICR mice so that TTA models of hepatic fibrosis can be established. • 2. Dissolving indole-3-carbinol, diindolylmethane and derivative thereof in corn oil and treating hepatic fibrosis through intragastric administration at the same time of the establishment of TTA models of hepatic fibrosis. • 3. Administering TAA, indole-3-carbinol, diindolylmethane and derivatives thereof twice a week for four weeks in succession; killing the mice and taking out the liver for hydroxyproline test and alanine aminotransferase (ALT) test. Application of Water Injection of Indole-3-carbinol, Diindolylmethane and Derivatives thereof Disclosed in This Invention in the Treatment of Modeled Hepatic Fibrosis: • 1. Injecting the phosphate buffer solution of thioacetamide (TTA) into the abdominal cavity of ICR mice so that TTA models of hepatic fibrosis can be established. • 2. Dissolving indole-3-carbinol, diindolylmethane and derivative thereof in water and treating hepatic fibrosis through intraperitoneal administration at the same time of the establishment of TTA models of hepatic fibrosis. • 3. Administering TAA, indole-3-carbinol, diindolylmethane and derivatives thereof twice a week for four weeks in succession; killing the mice and taking out the liver for hydroxyproline test and alanine aminotransferase (ALT) test. Dissolving I3C, DIM and methoxyl-DIM in corn oil so that 2.0mg/ml stock solution can be obtained for later use; establishing TAA models of hepatic fibrosis in mice with the method commonly adopted in the related literature, namely, picking 40 mice weighing 16-18g and randomly dividing them into four groups: TAA model group, I3C treatment group, DIM treatment group and 5-methoxyl-DIM treatment group; injecting TAA phosphate buffer solution (200mg/kg) into the abdominal cavity of the mice, twice a week; starting the treatment at the same time of the model establishment: administering the correlated drugs intragastrically at the rate of 20mg/kg to the mice in I3C treatment group, DIM treatment group and 5-methoxyl-DIM treatment group, twice a week; in contrast, the mice in the TAA model group are given only corn oil at the same dosage and frequency. Killing all mice of the four groups 4 weeks later and taking out the pathologically changed hepatic tissue for hydroxyproline test and alanine aminotransferase test. • (1) Hydroxyproline test Preparing the tissue homogenate of the pathologically changed liver and extracting the supernatant thereof; testing the concentration of hydroxyproline by means of alkaline hydrolysis. • (2) Results of alanine aminotransferase test Testing the serum of mice so that the concentration of alanine aminotransferase can be determined. When hepatic fibrosis is in process, what accumulate in liver are mainly collagen fibers. Since hydroxyproline is specific to collagen fibers, its concentration to some extent reflects the degree of hepatic fibrosis. As is shown in table 1, the oral administration of I3C, DIM and derivatives thereof can effectively relieve hepatic fibrosis as the concentration of hydroxyproline in the treatment groups is significant lower than that of the TAA model group. […]
# [2] = system: TAA-induced model hepatic fibrosis in mice; test: Treatment of TAA-induced model hepatic fibrosis in mice by intraperitoneal administration of water injection; hydroxyproline test and alanine aminotransferase test; type: in vivo, ICR mice; settings: 20mg/kg intraperitoneally, water injection with cyclodextrin in physiological saline, twice a week, 4 weeks, mean value ± standard deviation; for alanine aminotransferase: TAA model group 392±31; for hydroxyproline: hepatic tissue, TAA model group 363±32
# Excerpt: as §1, with “determined.” for “determined. When hepatic fibrosis is in process, what accumulate in liver are mainly collagen fibers. Since hydroxyproline is specific to collagen fibers, its concentration to some extent reflects the degree of hepatic fibrosis. As is shown in table 1, the oral administration of I3C, DIM and derivatives thereof can effectively relieve hepatic fibrosis as the concentration of hydroxyproline in the treatment groups is significant lower than that of the TAA model group.”
structure (smiles),measurement,setting,value
COc1ccc2[nH]cc(Cc3c[nH]c4ccc(OC)cc34)c2c1 [5-methoxyl-DIM],hydroxyproline,[1],194±17 µg/g liver
same,alanine aminotransferase,[1],236±12 U/mgprot
same,alanine aminotransferase,[2],226±19 U/mgprot
same,hydroxyproline,[2],203±14 µg/g liver
"OCc1c[nH]c2ccccc12 [I3 C, indole-3-carbinol]",hydroxyproline,[1],237±11 µg/g liver
same,alanine aminotransferase,[1],245±32 U/mgprot
same,alanine aminotransferase,[2],239±21 U/mgprot
same,hydroxyproline,[2],253±21 µg/g liver
"c1ccc2c(Cc3c[nH]c4ccccc34)c[nH]c2c1 [DIM, 3,3'-Diindolylmethane]",hydroxyproline,[1],176±21 µg/g liver
same,alanine aminotransferase,[1],204±37 U/mgprot
same,alanine aminotransferase,[2],187±29 U/mgprot
same,hydroxyproline,[2],195±24 µg/g liver
